The values below come from ChEMBL document CHEMBL1143261, “Enantioselective actions of 4-amino-3-hydroxybutanoic acid and (3-amino-2-hydroxypropyl)methylphosphinic acid at recombinant GABA(C) receptors” (Bioorg Med Chem Lett, 2008).

Assay [1] addresses T1, Gamma-aminobutyric acid receptor subunit rho-1 (Homo sapiens, UniProt P24046). The experiment in a line: Antagonist activity at human recombinant GABAc rho1 receptor expressed in Xenopus laevis oocytes at -60mV by two-electrode voltage clamp method. In kind it is functional, cell-based, Oocyte. (In general: In two-electrode clamp one electrode senses voltage and the other passes current.)

In assay [2] the target is T1, Gamma-aminobutyric acid receptor subunit rho-1. As to the kind of experiment: Agonist activity at human recombinant GABAc rho1 receptor expressed in Xenopus laevis oocytes at -60mV by two-electrode voltage clamp method. In kind it is functional, cell-based, Oocyte.

T1 sequence (P24046 whole entry): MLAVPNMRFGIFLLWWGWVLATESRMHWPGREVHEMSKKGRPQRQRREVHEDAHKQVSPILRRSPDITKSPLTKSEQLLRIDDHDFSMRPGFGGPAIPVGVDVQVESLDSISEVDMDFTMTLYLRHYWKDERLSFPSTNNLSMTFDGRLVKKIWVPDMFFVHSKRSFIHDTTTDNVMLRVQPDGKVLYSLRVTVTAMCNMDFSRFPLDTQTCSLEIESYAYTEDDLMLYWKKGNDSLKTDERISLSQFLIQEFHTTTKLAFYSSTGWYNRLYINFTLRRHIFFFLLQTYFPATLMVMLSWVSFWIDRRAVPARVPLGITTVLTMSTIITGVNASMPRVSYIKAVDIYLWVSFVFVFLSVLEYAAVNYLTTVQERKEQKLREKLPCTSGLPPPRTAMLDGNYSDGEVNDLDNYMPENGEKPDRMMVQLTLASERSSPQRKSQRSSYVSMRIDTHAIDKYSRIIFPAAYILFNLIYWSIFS

For `CP(=O)(O)C[C@@H](O)CN`, the IC50 in assay [1] was 17.1 µM. Still for that read-out and setting: then `CP(=O)(O)C[C@H](O)CN`, with 5.4 µM.

For `NC[C@@H](O)CC(=O)O`, the EC50 in assay [2] amounted to 44.8 µM. Same read-out and setting: the same measure for `NC[C@H](O)CC(=O)O`: 19.1 µM. Consider `C[C@H](CCN)C(=O)O`, for which the IC50 in assay [1] turned out to be 16 µM.

Turning to `C[C@@H](CCN)C(=O)O`, in assay [2], the half-maximal effective concentration (EC50) stood at 65 µM.

A word on the IC50: it is the point on the concentration scale where inhibition reaches its midpoint. What is called EC50 is the concentration that produces a half-maximal response.
